Source: patent US20250295679A1, “Compositions and Dosage Forms for Treatment of HPV Infection and HPV-Induced Neoplasia” (priority 2022, published 2025)
Like-named read-outs stand apart in the source and are kept apart here.

Columns and labels:
HEK293 cells = test: In vitro cytotoxicity, XTT, five days
Protocol: (§1) Three compounds (Compound I, Compound II and Compound III) were solubilized at 40 mM in DMSO and stored at −20° C. The test compounds were evaluated using a high test concentration of 50 μM. Serial half-logarithmic dilutions were performed for the in vitro cytotoxicity assays.
(§2) Cells listed in Table 70 were enumerated by Trypan Blue Dye exclusion method and seeded in the interior wells of a 96 well flat bottom microtiter plate at 100 μL/well. Proliferating cells were incubated overnight at 37° C./5% CO2 to allow the cells to adhere to the plates at approximately 70% confluency. Tissue culture medium was removed and replaced with 100 μL/well of fresh medium. One-hundred microliters (100 μL) of each compound at six concentrations was transferred to the 96-well plate containing the cells in triplicate. Table 70 lists the cell line, type of cell, source of cell stock, base tissue culture medium supplemented with 10% fetal bovine serum, 2 mM L-glutamine, 100 U/mL penicillin and 100 μg/mL streptomycin, and microtiter plate seeding density.
(§3) Following incubation at 37° C. in a 5% CO2 incubator for five days, the test plates were stained with the tetrazolium dye XTT (2,3-bis(2-methoxy-4-nitro-5-sulfopheny1)-5-[(phenylamino)carbonyl]-2H-tetrazolium hydroxide). XTT-tetrazolium was metabolized by the mitochondrial enzymes of metabolically active cells to a soluble formazan product. XTT solution was prepared daily as a stock of 1 mg/ml in RPM11640. Phenazine methosulfate (PMS) solution was prepared at 0.15 mg/ml in PBS and stored in the dark at −20° C. XTT/PMS stock was prepared immediately before use by adding 40 μL of PMS per ml of XTT solution. Fifty microliters of XTT/PMS were added to each well of the plate and the plate was reincubated for 4 hours at 37° C. Plates were sealed with adhesive plate sealers and shaken gently or inverted several times to mix the soluble formazan product and the plate was read spectrophotometrically at 450/650 nm with a Molecular Devices Vmax plate reader.
(§4) Microsoft Excel 2010 was used to analyze and graph the raw data. […] Raw data for cytotoxicity with a graphic representation of the data are provided in a printout summarizing the compound effect on cell viability.
(§5) Compounds I, II, and III were evaluated for cytotoxicity to proliferating Hs27, HeLa, C33A and HEK293 cells by measuring cell viability using XTI tetrazolium dye following five days in culture (Table 71).

[1] = Solubility in buffers, water and simulated vaginal fluid at 37° C.; settings: 37° C.
Protocol: About 4 mg of Compound I Pattern 1 was added into 2 mL of buffer solution.
(§6) Solubility was tested in five media, pH 3.0 citrate buffer, pH 4.5 acetate buffer, pH 6.8 phosphate buffer, water, simulated vaginal fluid (pH 4.2) at 37° C. for 0.5 h and 2 h.
The salt amount used is equivalent to 10 mg anhydrous free base. […] The obtained clear solutions were analyzed by pH meter for pH, and solubility was determined by observation.
as §6

[2] = Behavior under compression, grinding and granulation simulation (XRPD); assay type: physicochemical
Protocol: About 10 mg of Compound I monofumarate Pattern 1 (Example 7) was compressed for 5 minutes at 10 MPa with a hydraulic press. XRPD characterization was performed to investigate the polymorphic behavior under compression.
About 10 mg of Compound I monofumarate Pattern 1 (Example 7) was ground manually with a mortar and pestle for 5 min. Form transformation and degree of crystallinity was evaluated by XRPD.
Water or ethanol was added drop wise to about 10 mg of Compound I monofumarate Pattern 1 (Example 7) until solids were wetted sufficiently. The samples were ground manually with a mortar and pestle for 3 minutes. Samples are dried under ambient condition for 10 min.
Form transformation and degree of crystallinity were evaluated by XRPD.

[3] = Bulk (accelerated) stability, one week, HPLC and XRPD; settings: initial chemical purity before storage
Protocol: Bulk stability: Accelerated stability experiments were conducted at 25° C./92% RH and 40° C./75% RH in an open container, 60° C. in a tight container for one week.
Samples were characterized by XRPD and HPLC and inspected for color change.
Accelerated stability experiments were conducted at 25° C./92% RH in an open container, at 40° C./75% RH in an open container, and at 60° C. in a tight container for one week.

[4] = Hygroscopicity by DVS at 25° C.; assay type: physicochemical; settings: for XRPD after DVS test: after humidity cycle 40-0-95-0-40% RH, 25° C.
Protocol: Hygroscopicity was investigated by DVS at 25° C., using the following method: • Method: 40-0-95-0-40% RH, dm/dt=0.002

[5] = Tablet stability study (storage, purity by HPLC); assay type: physicochemical; settings: for Degradation of tablets: within one month at 40° C. and 75% RH
Protocol: Tablets were prepared using the excipients and excipient ratios shown in the first column of the following tables. The tablets were then stored under the conditions indicated and periodically sampled and tested for purity by HPLC.

HeLa cells = tested on: HeLa cells
Protocol: as §1, §2, §3, §4, §5

Hs27 cells = tested on: Hs27 cells
Protocol: as §1, §2, §3, §4, §5

C33A cells = test: In vitro cytotoxicity, XTT, five days; settings: read-out: C33A CC50, proliferating C33A cells
Protocol: as §1, §2, §3, §4, §5

[6] = solution in pH 3.0 100 mM citrate buffer
[7] = solution in pH 4.5 50 mM acetate buffer
[8] = solution in pH 6.8 50 mM phosphate buffer
[9] = solution in simulated vaginal fluid (pH adjusted with 0.2N NaOH)
[10] = ground manually with mortar and pestle for 5 min

Structure (SMILES): CCOC(=O)C(C)NP(=O)(COCCn1cnc2c(OC)nc(N)nc21)OCc1ccccc1 (mixture of isomers) [AB12280]
- CC50 (HEK293 cells; read-out: HEK293 CC50, proliferating HEK293 cells, XTT, five days): < 0.16 µM

Structure (SMILES): CCOC(=O)[C@H](C)NP(=O)(COCCn1cnc2c(OC)nc(N)nc21)OCc1ccccc1.O=C(O)/C=C/C(=O)O (mixture of isomers) [Compound I monofumarate, (±)-(2S)-ethyl-2-((((2-(2-amino-6-methoxy-9H-purin-9-yl)-ethoxy)-methyl)-(benzyloxy)-phosphoryl)-amino)-propionate monofumarate]
- pH at 2 hrs [1, 6]: (3.05)
- pH at 2 hrs [1, 7]: (4.36)
- pH at 2 hrs [1, 8]: (6.49)
- pH at 2 hrs [1, 9]: (5.39)
- pH at 2 hrs ([1]; solution in water): (3.11)
- Form change by XRPD under compression ([2]; compressed 5 minutes at 10 MPa): no form change was observed
- Crystallinity by XRPD after grinding [2, 10]: crystallinity slightly decreased
- Form change by XRPD after grinding [2, 10]: no form change was observed
- Form change by XRPD after granulation simulation ([2]; wetted with water or ethanol, ground 3 minutes, dried): neither in ethanol, nor in water form change was observed
- HPLC purity, Initial ([3]; listed as Compound I monofumarate Pattern 1, monofumarate): 98.6%
- Desorption (%) Cycle 1 ([4]; 0% RH, DVS 25° C.): 0.49%
- Desorption (%) Cycle 2 ([4]; 0% RH, DVS 25° C.): 0.09%
- Sorption (%) Cycle 1 ([4]; 0% RH, DVS 25° C.): 0.49%
- Sorption (%) Cycle 2 ([4]; 0% RH, DVS 25° C.): 0.09%
- Desorption (%) Cycle 1 ([4]; 10% RH, DVS 25° C.): 0.62%
- Desorption (%) Cycle 2 ([4]; 10% RH, DVS 25° C.): 0.15%
- Sorption (%) Cycle 1 ([4]; 10% RH, DVS 25° C.): 0.56%
- Sorption (%) Cycle 2 ([4]; 10% RH, DVS 25° C.): 0.18%
- Desorption (%) Cycle 1 ([4]; 20% RH, DVS 25° C.): 0.71%
- Desorption (%) Cycle 2 ([4]; 20% RH, DVS 25° C.): 0.35%
- Sorption (%) Cycle 1 ([4]; 20% RH, DVS 25° C.): 0.66%
- Sorption (%) Cycle 2 ([4]; 20% RH, DVS 25° C.): 0.27%
- Desorption (%) Cycle 1 ([4]; 30% RH, DVS 25° C.): 0.81%
- Desorption (%) Cycle 2 ([4]; 30% RH, DVS 25° C.): 0.47%
- Sorption (%) Cycle 1 ([4]; 30% RH, DVS 25° C.): 0.76%
- Sorption (%) Cycle 2 ([4]; 30% RH, DVS 25° C.): 0.37%
- Desorption (%) Cycle 1 ([4]; 40% RH, DVS 25° C.): 0.93%
- Desorption (%) Cycle 2 ([4]; 40% RH, DVS 25° C.): 0.56%
- Sorption (%) Cycle 1 ([4]; 40% RH, DVS 25° C.): 0.86%
- Sorption (%) Cycle 2 ([4]; 40% RH, DVS 25° C.): 0.47%
- Desorption (%) Cycle 2 ([4]; 50% RH, DVS 25° C.): 0.67%
- Sorption (%) Cycle 1 ([4]; 50% RH, DVS 25° C.): 0.71%
- Desorption (%) Cycle 2 ([4]; 60% RH, DVS 25° C.): 0.85%
- Sorption (%) Cycle 1 ([4]; 60% RH, DVS 25° C.): 0.85%
- Desorption (%) Cycle 2 ([4]; 70% RH, DVS 25° C.): 1.04%
- Sorption (%) Cycle 1 ([4]; 70% RH, DVS 25° C.): 1.02%
- Desorption (%) Cycle 2 ([4]; 80% RH, DVS 25° C.): 1.30%
- Sorption (%) Cycle 1 ([4]; 80% RH, DVS 25° C.): 1.27%
- Desorption (%) Cycle 2 ([4]; 90% RH, DVS 25° C.): 1.84%
- Sorption (%) Cycle 1 ([4]; 90% RH, DVS 25° C.): 1.78%
- Desorption (%) Cycle 2 ([4]; 95% RH, DVS 25° C.): 2.89%
- Sorption (%) Cycle 1 ([4]; 95% RH, DVS 25° C.): 2.89%
- XRPD after DVS test [4]: No form change,
- Water uptake ([4]; up to / in 95% RH, DVS 25° C.): about 2.9%
- Degradation of tablets compared with tablets produced from Compound I ([5]; range of different formulations, purity by HPLC): degraded less
- Degradation of tablets [5]: far less degradation

Structure (SMILES): CCOC(=O)[C@H](C)N[P@](=O)(COCCn1cnc2c(OC)nc(N)nc21)OCc1ccccc1 (single isomer, unassigned; isomer 1) [AB12280 Isomer 1]
- CC50 (HeLa cells): 15.1 µM
- CC50 (Hs27 cells): 23.2 µM
- CC50 (C33A cells): 0.2 µM
- CC50 (HEK293 cells): < 0.16 µM

Structure (SMILES): CCOC(=O)[C@H](C)N[P@@](=O)(COCCn1cnc2c(OC)nc(N)nc21)OCc1ccccc1 (single isomer, unassigned; isomer 2) [AB12280 Isomer 2]
- CC50 (HeLa cells): 16.9 µM
- CC50 (Hs27 cells): 7.62 µM
- CC50 (C33A cells): < 0.16 µM
- CC50 (HEK293 cells): < 0.16 µM

Structure (SMILES): CCOC(=O)[C@H](C)NP(=O)(COCCn1cnc2c(OC)nc(N)nc21)OCc1ccccc1 (stereo partly drawn) [Compound I, ethyl(((2-(2-amino-6-methoxy-9H-purin-9-yl)ethoxy)methyl)(benzyloxy)-phosphoryl)-L-alaninate]
- pH at 2 hrs [1, 6]: (2.98)
- pH at 2 hrs [1, 7]: (4.50)
- pH at 2 hrs [1, 8]: (6.81)
- pH at 2 hrs [1, 9]: (5.53)
- pH at 2 hrs ([1]; solution in water): (7.55)
- HPLC purity, Initial ([3]; listed as Compound I free base Pattern 1): 98.7%
- Desorption (%) Cycle 1 ([4]; 0% RH, DVS 25° C.): 0.00%
- Desorption (%) Cycle 2 ([4]; 0% RH, DVS 25° C.): 0.19%
- Sorption (%) Cycle 1 ([4]; 0% RH, DVS 25° C.): 0.00%
- Sorption (%) Cycle 2 ([4]; 0% RH, DVS 25° C.): 0.19%
- Desorption (%) Cycle 1 ([4]; 10% RH, DVS 25° C.): 0.11%
- Desorption (%) Cycle 2 ([4]; 10% RH, DVS 25° C.): 0.37%
- Sorption (%) Cycle 1 ([4]; 10% RH, DVS 25° C.): 0.08%
- Sorption (%) Cycle 2 ([4]; 10% RH, DVS 25° C.): 0.22%
- Desorption (%) Cycle 1 ([4]; 20% RH, DVS 25° C.): 0.23%
- Desorption (%) Cycle 2 ([4]; 20% RH, DVS 25° C.): 0.57%
- Sorption (%) Cycle 1 ([4]; 20% RH, DVS 25° C.): 0.17%
- Sorption (%) Cycle 2 ([4]; 20% RH, DVS 25° C.): 0.30%
- Desorption (%) Cycle 1 ([4]; 30% RH, DVS 25° C.): 0.47%
- Desorption (%) Cycle 2 ([4]; 30% RH, DVS 25° C.): 0.83%
- Sorption (%) Cycle 1 ([4]; 30% RH, DVS 25° C.): 0.28%
- Sorption (%) Cycle 2 ([4]; 30% RH, DVS 25° C.): 0.44%
- Desorption (%) Cycle 1 ([4]; 40% RH, DVS 25° C.): 0.60%
- Desorption (%) Cycle 2 ([4]; 40% RH, DVS 25° C.): 1.09%
- Sorption (%) Cycle 1 ([4]; 40% RH, DVS 25° C.): 0.41%
- Sorption (%) Cycle 2 ([4]; 40% RH, DVS 25° C.): 0.62%
- Desorption (%) Cycle 2 ([4]; 50% RH, DVS 25° C.): 1.48%
- Sorption (%) Cycle 1 ([4]; 50% RH, DVS 25° C.): 0.61%
- Desorption (%) Cycle 2 ([4]; 60% RH, DVS 25° C.): 1.96%
- Sorption (%) Cycle 1 ([4]; 60% RH, DVS 25° C.): 0.85%
- Desorption (%) Cycle 2 ([4]; 70% RH, DVS 25° C.): 2.78%
- Sorption (%) Cycle 1 ([4]; 70% RH, DVS 25° C.): 1.14%
- Desorption (%) Cycle 2 ([4]; 80% RH, DVS 25° C.): 4.33%
- Sorption (%) Cycle 1 ([4]; 80% RH, DVS 25° C.): 1.64%
- Desorption (%) Cycle 2 ([4]; 90% RH, DVS 25° C.): 9.10%
- Sorption (%) Cycle 1 ([4]; 90% RH, DVS 25° C.): 4.27%
- Desorption (%) Cycle 2 ([4]; 95% RH, DVS 25° C.): 14.32%
- Sorption (%) Cycle 1 ([4]; 95% RH, DVS 25° C.): 14.32%
- XRPD after DVS test [4]: No form change,
- Degradation of tablets [5]: substantially degrade
